From patent US20230085307A1, “PYRIDAZINONE COMPOUND AND HERBICIDE” (NISSAN CHEMICAL CORPORATION, priority 2019, published 2023)

Key:
barnyard grass = test: Test Example 4: herbicidal effect by soil treatment (Table 19, symbol H); format: in vivo, barnyard grass (Echinochloa crus-galli); conditions: amount of applied herbicide 320 g/ha
Procedure, shortened: (§1)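 Pre-emergence style soil spray: seeds under ~1.5 cm sterilized diluvial soil received a uniform coat of emulsion diluted to the predetermined herbicide amount. Greenhouse 25–30° C; readout at week three on previously defined criteria.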

southern crabgrass = test: Test Example 5: herbicidal effect by foliage application, plastic box (Table 20, symbol F); format: in vivo, southern crabgrass (Digitaria ciliaris); conditions: foliage application, 320 g/ha, three weeks after application
Procedure, shortened: (§2)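 Plants were sown into sterilized diluvial soil under about 1.5 cm cover and kept in a greenhouse at 25° C. to 30° C. Fourteen days on, foliage received an even spray of the diluted emulsion. Herbicidal or crop effect was judged three weeks afterwards.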

velvetleaf = test: Test Example 4: herbicidal effect by soil treatment (Table 19, symbol M); format: in vivo, velvetleaf (Abutilon theophrasti); conditions: amount of applied herbicide 320 g/ha
Procedure, shortened: as §1

oval-leafed pondweed [1] = test: Test Example 2: herbicidal activity, application during weed generation under submerged conditions (Table 17, symbol C); format: in vivo, oval-leafed pondweed (Monochoria vaginalis); conditions: AAH 320 g/ha; application during weed generation, submerged conditions
Procedure, shortened: (§3)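 Herbicide emulsion, diluted with water to the chosen amount, is applied onto 4 cm floodwater over alluvial soil where the weeds were co-sown and raised at 25–30° C. Application timing: 1–2 leaves. Assessment: three weeks afterwards.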

chickweed [2] = test: Test Example 4: herbicidal effect by soil treatment (Table 19, symbol P); format: in vivo, common chickweed (Stellaria media); conditions: amount of applied herbicide 320 g/ha
Procedure, shortened: as §1

wild oat [3] = test: Test Example 5: herbicidal effect by foliage application, plastic box (Table 20, symbol I); format: in vivo, wild oat (Avena fatua); conditions: foliage application, 320 g/ha, three weeks after application
Procedure, shortened: as §2

oval-leafed pondweed [4] = test: Test Example 1: herbicidal activity, application before weed generation under submerged conditions (Table 16, symbol C); format: in vivo, oval-leafed pondweed (Monochoria vaginalis); conditions: amount of applied herbicide 320 g/ha
Procedure, shortened: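 Alluvial soil was flooded to 4 cm depth, weed seeds were sown mixed and 2.5-leaf rice seedlings were transplanted. On sowing day, the compound's emulsion, diluted in water to a set dose, was applied to the water surface. Plants grew at 25–30 °C and were scored 0–5 after three weeks.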

lambsquarters = test: Test Example 4: herbicidal effect by soil treatment (Table 19, symbol O); format: in vivo, lambsquarters (Chenopodium album); conditions: amount of applied herbicide 320 g/ha
Procedure, shortened: as §1

late watergrass = test: Test Example 2: herbicidal activity, application during weed generation under submerged conditions (Table 17, symbol A); format: in vivo, late watergrass (Echinochloa oryzicola); conditions: AAH 320 g/ha; application during weed generation, submerged conditions
Procedure, shortened: as §3

Japanese bulrush = test: Test Example 2: herbicidal activity, application during weed generation under submerged conditions (Table 17, symbol B); format: in vivo, Japanese bulrush (Schoenoplectus juncoides); conditions: AAH 320 g/ha; application during weed generation, submerged conditions
Procedure, shortened: as §3

windgrass = test: Test Example 4: herbicidal effect by soil treatment (Table 19, symbol L); format: in vivo, windgrass (Apera spica-venti); conditions: amount of applied herbicide 320 g/ha
Procedure, shortened: as §1

wild oat [5] = test: Test Example 4: herbicidal effect by soil treatment (Table 19, symbol I); format: in vivo, wild oat (Avena fatua); conditions: amount of applied herbicide 320 g/ha
Procedure, shortened: as §1

chickweed [6] = test: Test Example 5: herbicidal effect by foliage application, plastic box (Table 20, symbol P); format: in vivo, common chickweed (Stellaria media); conditions: foliage application, 320 g/ha, three weeks after application
Procedure, shortened: as §2

persian speedwell = test: Test Example 4: herbicidal effect by soil treatment (Table 19, symbol R); format: in vivo, Persian speedwell (Veronica persica); conditions: amount of applied herbicide 320 g/ha
Procedure, shortened: as §1

Italian ryegrass = test: Test Example 4: herbicidal effect by soil treatment (Table 19, symbol K); format: in vivo, Italian ryegrass (Lolium multiflorum); conditions: amount of applied herbicide 320 g/ha
Procedure, shortened: as §1

Row | SMILES | H: barnyard grass, herbicidal effect grade (barnyard grass) | F: southern crabgrass, herbicidal effect grade (southern crabgrass) | M: velvetleaf, herbicidal effect grade (velvetleaf) | herbicidal effect rating, C: oval-leafed pondweed (oval-leafed pondweed [1]) | P: chickweed, herbicidal effect grade (chickweed [2]) | I: wild oat, herbicidal effect grade (wild oat [3]) | Herbicidal effect, C: oval-leafed pondweed (oval-leafed pondweed [4]) | O: lambsquarters, herbicidal effect grade (lambsquarters) | herbicidal effect rating, A: late watergrass (late watergrass) | herbicidal effect rating, B: Japanese bulrush (Japanese bulrush) | L: windgrass, herbicidal effect grade (windgrass) | I: wild oat, herbicidal effect grade (wild oat [5]) | P: chickweed, herbicidal effect grade (chickweed [6]) | R: persian speedwell, herbicidal effect grade (persian speedwell) | K: Italian ryegrass, herbicidal effect grade (Italian ryegrass)
1 | COc1ccccc1-c1sc2cc(F)ccc2c1-c1c(OS(=O)(=O)N(C)C)c(C)nn(C)c1=O [3-028] | 0 (Herbicidal rate of 5% or less (almost no effect)) | 3 (Herbicidal rate of 40% or more and less than 70%) | 0 (Herbicidal rate of 5% or less (almost no effect)) | 0 (Herbicidal rate of 5% or less (almost no effect)) | 0 (Herbicidal rate of 5% or less (almost no effect)) | 0 (Herbicidal rate of 5% or less (almost no effect)) | 0 (Herbicidal rate of 5% or less (almost no effect)) | 0 (Herbicidal rate of 5% or less (almost no effect)) | 2 (Herbicidal rate of 20% or more and less than 40%) | 0 (Herbicidal rate of 5% or less (almost no effect)) | 3 (Herbicidal rate of 40% or more and less than 70%) | 0 (Herbicidal rate of 5% or less (almost no effect)) | 5 (Herbicidal rate of 90% or more (almost completely withered)) | 0 (Herbicidal rate of 5% or less (almost no effect)) | 0 (Herbicidal rate of 5% or less (almost no effect))
2 | CCCC(=O)Oc1c(C)nn(C)c(=O)c1-c1c(-c2ccc(Cl)cc2)sc2cc(Cl)ccc12 [3-034] | 0 (Herbicidal rate of 5% or less (almost no effect)) | 3 (Herbicidal rate of 40% or more and less than 70%) | 3 (Herbicidal rate of 40% or more and less than 70%) | 0 (Herbicidal rate of 5% or less (almost no effect)) | 3 (Herbicidal rate of 40% or more and less than 70%) | 3 (Herbicidal rate of 40% or more and less than 70%) | 3 (Herbicidal rate of 40% or more and less than 70%) | 0 (Herbicidal rate of 5% or less (almost no effect)) | 3 (Herbicidal rate of 40% or more and less than 70%) | 0 (Herbicidal rate of 5% or less (almost no effect)) | 0 (Herbicidal rate of 5% or less (almost no effect)) | 0 (Herbicidal rate of 5% or less (almost no effect)) | 5 (Herbicidal rate of 90% or more (almost completely withered)) | 4 (Herbicidal rate of 70% or more and less than 90%) | 1 (Herbicidal rate of 5% or more and less than 20%)
3 | CCOc1ccccc1-c1sc2cc(Cl)ccc2c1-c1c(O)c(C)nn(C)c1=O [3-039] | 4 (Herbicidal rate of 70% or more and less than 90%) | 5 (Herbicidal rate of 90% or more (almost completely withered)) | 3 (Herbicidal rate of 40% or more and less than 70%) | 0 (Herbicidal rate of 5% or less (almost no effect)) | 5 (Herbicidal rate of 90% or more (almost completely withered)) | 1 (Herbicidal rate of 5% or more and less than 20%) | 0 (Herbicidal rate of 5% or less (almost no effect)) | 3 (Herbicidal rate of 40% or more and less than 70%) | 2 (Herbicidal rate of 20% or more and less than 40%) | 2 (Herbicidal rate of 20% or more and less than 40%) | 0 (Herbicidal rate of 5% or less (almost no effect)) | 0 (Herbicidal rate of 5% or less (almost no effect)) | 5 (Herbicidal rate of 90% or more (almost completely withered)) | 5 (Herbicidal rate of 90% or more (almost completely withered)) | 0 (Herbicidal rate of 5% or less (almost no effect))
4 | CCCOc1ccc2c(-c3c(O)c(C)nn(C)c3=O)c(-c3ccccc3OCC)sc2c1 [3-103] | 4 (Herbicidal rate of 70% or more and less than 90%) | 5 (Herbicidal rate of 90% or more (almost completely withered)) | 3 (Herbicidal rate of 40% or more and less than 70%) | 3 (Herbicidal rate of 40% or more and less than 70%) | 5 (Herbicidal rate of 90% or more (almost completely withered)) | 2 (Herbicidal rate of 20% or more and less than 40%) | 5 (Herbicidal rate of 90% or more (almost completely withered)) | 5 (Herbicidal rate of 90% or more (almost completely withered)) | 2 (Herbicidal rate of 20% or more and less than 40%) | 3 (Herbicidal rate of 40% or more and less than 70%) | 5 (Herbicidal rate of 90% or more (almost completely withered)) | 0 (Herbicidal rate of 5% or less (almost no effect)) | 5 (Herbicidal rate of 90% or more (almost completely withered)) | 5 (Herbicidal rate of 90% or more (almost completely withered)) | 5 (Herbicidal rate of 90% or more (almost completely withered))
5 | C=CCOc1ccc2c(-c3c(O)c(C)nn(C)c3=O)c(-c3ccccc3OC)sc2c1 [3-111] | 4 (Herbicidal rate of 70% or more and less than 90%) | 5 (Herbicidal rate of 90% or more (almost completely withered)) | 3 (Herbicidal rate of 40% or more and less than 70%) | 3 (Herbicidal rate of 40% or more and less than 70%) | 3 (Herbicidal rate of 40% or more and less than 70%) | 4 (Herbicidal rate of 70% or more and less than 90%) | 5 (Herbicidal rate of 90% or more (almost completely withered)) | 5 (Herbicidal rate of 90% or more (almost completely withered)) | 4 (Herbicidal rate of 70% or more and less than 90%) | 3 (Herbicidal rate of 40% or more and less than 70%) | 0 (Herbicidal rate of 5% or less (almost no effect)) | 3 (Herbicidal rate of 40% or more and less than 70%) | 5 (Herbicidal rate of 90% or more (almost completely withered)) | 5 (Herbicidal rate of 90% or more (almost completely withered)) | 5 (Herbicidal rate of 90% or more (almost completely withered))
6 | COc1ccccc1-c1sc2cc(OCC(F)F)ccc2c1-c1c(O)c(C)nn(C)c1=O [3-114] | 5 (Herbicidal rate of 90% or more (almost completely withered)) | 5 (Herbicidal rate of 90% or more (almost completely withered)) | 4 (Herbicidal rate of 70% or more and less than 90%) | 5 (Herbicidal rate of 90% or more (almost completely withered)) | 5 (Herbicidal rate of 90% or more (almost completely withered)) | 5 (Herbicidal rate of 90% or more (almost completely withered)) | 5 (Herbicidal rate of 90% or more (almost completely withered)) | 5 (Herbicidal rate of 90% or more (almost completely withered)) | 3 (Herbicidal rate of 40% or more and less than 70%) | 4 (Herbicidal rate of 70% or more and less than 90%) | 5 (Herbicidal rate of 90% or more (almost completely withered)) | 0 (Herbicidal rate of 5% or less (almost no effect)) | 5 (Herbicidal rate of 90% or more (almost completely withered)) | 5 (Herbicidal rate of 90% or more (almost completely withered)) | 5 (Herbicidal rate of 90% or more (almost completely withered))
